1 molecule from US20080070972A1, “Controlled release formulations” (priority 2006, published 2008) can be followed below.

Series [1] is described as follows: Bulk, granule and pellet density measurement. It is filed as physicochemical. From the text: (§1) The increase in density of the granulated material relative to the non-granulated material results in improved flow characteristics which facilitate easier handling during manufacturing processes such as formulation. Bulk and granulated densities can be measured with a measuring cylinder. The values for the bulk (ρb) and tap (ρt) densities can be used to calculate index of compressibility (% Compressibility), which is indicative of the flow properties of the material. The % Compressibility can be calculated by the following formula: % Compressibility=[(ρt−−ρb)/ρt-]×100%. See, e.g., The theory and practice of industrial pharmacy, by L. Lachman, H. Lieberman, and J. Kanig, in Varghese Publishing House, 3rd Indian Edition, (Hind Rajasthan Bldng, Dadar Bombay 400 014), 1987, p. 184. Also, flowability of the material can be determined by Flodex analysis. The Flodex Test Apparatus is ideal for determining the intrinsic flowability of powders (which is recommended for quality control of powders). The Flodex instrument includes a complete set of index flow disks with opening of different diameter. A tested powder is allowed to flow through the opening. […] See, e.g., Composite Method to Quantify Powder Flow as a Screening Method in Early Tablet or Capsule Formulation Development, by Michael K. Taylor, Jeri Ginsburg, Anthony Hickey, and Ferdous Gheyas, in AAPS PharmSciTech, 2000, 1(3): article 18.

The nature of series [2]: Flowability of the bulk material. The conditions noted are these: 500 μm sieved bulk non-granulated material. It is filed as physicochemical.
Excerpt: as §1

Series [3] in a line: Regional absorption studies. The conditions noted are these: in vivo.

The structures appear in SMILES notation.

Turning to `CCO[C@@H]1OC(=O)C[C@@H]1NC(=O)[C@@H]1CCCN1C(=O)[C@@H](NC(=O)c1ccc(N)c(Cl)c1)C(C)(C)C` [compound of Formula (I)], in series [1] (500 μm sieved bulk non-granulated material), the “density of the bulk material” value is reported as “around 0.24 g/cm^3”. Moreover, the “density of the natural form” value in series [1] (natural (non-granulated) form) was “about 0.2 g/cm^3”. Also, in series [2], the flowability result is recorded as “very poor flowability”. The regional absorption entry in series [3] is reported as “colonic absorption”.
